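1) Cells in 96-well plates. 2) Compound, 48 h, 5 concentrations. 3) Linear interpolation between surrounding doses. 4) Unreached endpoint = highest concentration. At the GI50, growth is halved.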 The source made the active and inactive calls. Cut-off read from the data, not from the text of the source: active = GI50 up to about 1.1 µM and inactive = higher.
Tests used:
Experiment in all cases: growth of human tumour cells (NCI), 48 h
[1] = tested on: NCI-H23
[2] = tested on: CAKI-1
[3] = tested on: SNB-75
[4] = tested on: SN12C
[5] = tested on: SF-295
[6] = tested on: UACC-257
[7] = tested on: HL-60
[8] = tested on: M14
[9] = tested on: SK-MEL-5
[10] = tested on: OVCAR-3
[11] = tested on: EKVX
[12] = tested on: SF-539
[13] = tested on: TK-10
[14] = tested on: UACC-62
[15] = tested on: OVCAR-5
[16] = tested on: SW-620

Measured: GI50

N#Cc1c([N+](=O)[O-])cc(C(F)(F)F)cc1[N+](=O)[O-]
inactive: [1] 7.94 µM | [2] 4.57 µM | [3] 6.22 µM | [4] 14.1 µM | [5] 4.74 µM | [6] 6.7 µM | [7] 1.66 µM | [8] 4.85 µM | [9] 15.3 µM | [10] 16.7 µM | [11] 18 µM | [12] 5.94 µM | [13] 13.7 µM | [14] 5.04 µM | [15] 18.1 µM | [16] 3.26 µM

O=C1CCC2(c3ccccc3)Nc3ncccc3N12 (configuration not stated)
inactive: [1] > 100 µM | [2] > 100 µM | [3] 61.9 µM | [4] > 100 µM | [5] > 100 µM | [6] > 100 µM | [7] > 100 µM | [8] > 100 µM | [9] > 100 µM | [10] > 100 µM | [11] > 100 µM | [12] > 100 µM | [13] > 100 µM | [14] > 100 µM | [15] > 100 µM | [16] > 100 µM

COC(=O)C(CC1=C(O)Nc2ccccc2N1)/C(=N/NC(N)=O)C(=O)Nc1ccccc1C (configuration not stated)
inactive: [1] > 100 µM | [2] > 100 µM | [3] > 100 µM | [4] > 100 µM | [5] > 100 µM | [6] > 100 µM | [7] > 100 µM | [8] > 100 µM | [9] 93.5 µM | [10] > 100 µM | [11] > 100 µM | [12] > 100 µM | [13] > 100 µM | [14] > 100 µM | [15] > 100 µM

O=C(N/N=C(\C1=Nc2ccc(Cl)cc2NC1O)C(O)/C=C/c1ccccc1)c1ccncc1 (configuration not stated)
inactive: [1] > 100 µM | [2] > 100 µM | [3] > 100 µM | [4] > 100 µM | [5] > 100 µM | [6] > 100 µM | [7] > 100 µM | [8] > 100 µM | [9] > 100 µM | [10] > 100 µM | [12] > 100 µM | [13] > 100 µM | [14] > 100 µM | [15] > 100 µM | [16] > 100 µM

CCCC1C(=O)C(CC)Cc2c(OC)ccc(OC)c21 (configuration not stated)
inactive: [2] > 100 µM | [3] > 100 µM | [4] > 100 µM | [5] > 100 µM | [6] > 100 µM | [7] > 100 µM | [8] > 100 µM | [9] > 100 µM | [10] > 100 µM | [11] > 100 µM | [12] > 100 µM | [13] > 100 µM | [14] > 100 µM | [15] > 100 µM | [16] > 100 µM

COC(=O)C1C2CC3C(OC(=O)C31)C2OC(=O)[C@](OC)(c1ccccc1)C(F)(F)F (some centres not stated)
inactive: [1] > 100 µM | [2] > 100 µM | [3] > 100 µM | [4] > 100 µM | [6] > 100 µM | [7] > 100 µM | [8] > 100 µM | [9] > 100 µM | [10] > 100 µM | [11] > 100 µM | [12] > 100 µM | [13] > 100 µM | [15] > 100 µM | [16] > 100 µM

O=C1c2ccccc2C(=O)N1CCn1ccc(NC(c2ccccc2)(c2ccccc2)c2ccccc2)nc1=O
inactive: [1] 24 µM | [2] 9.62 µM | [3] 21.8 µM | [4] 26.2 µM | [5] 15.1 µM | [6] 18 µM | [7] 19 µM | [8] 22 µM | [9] 17.5 µM | [10] 24.3 µM | [11] 49.1 µM | [12] 16 µM | [13] 26.9 µM | [14] 12.6 µM | [15] 25.1 µM | [16] 29.3 µM

Cc1cccc(C)c1NC(=O)C1=NC(=S)NC(c2ccccc2)C1c1nc2ccccc2s1 (configuration not stated)
inactive: [1] > 100 µM | [2] > 100 µM | [3] > 100 µM | [4] > 100 µM | [5] > 100 µM | [6] > 100 µM | [7] > 100 µM | [8] > 100 µM | [9] > 100 µM | [10] > 100 µM | [11] > 100 µM | [12] > 100 µM | [13] > 100 µM | [14] > 100 µM | [16] > 100 µM

CC(=O)Oc1ccccc1 [ACETIC ACID PHENYL ESTER]
inactive: [1] > 100 µM | [2] > 100 µM | [3] > 100 µM | [4] > 100 µM | [5] > 100 µM | [6] > 100 µM | [7] > 100 µM | [8] > 100 µM | [9] > 100 µM | [10] > 100 µM | [11] > 100 µM | [12] > 100 µM | [14] > 100 µM | [15] > 100 µM | [16] > 100 µM
